Data reported in patent publication US10160948B2, “Pluripotent embryonic-like stem cells, compositions, methods and uses thereof” (ABT HOLDING COMPANY, priority 1999, dated 2018).
Marks after values point to notes of the source that are not given here.

Experiments:
[1] = tested on: cells isolated from granulation tissue; assay: Dexamethasone treatment of cells from granulation tissue (wound chambers), assays for phenotypes; format: cell-based, rat
Swiss-3T3 cells = assay: Dexamethasone treatment of Swiss-3T3 cells, assay of phenotypes; format: cell-based, mouse
Description: Frozen 3T3 cells were then thawed, cell viability was determined using 0.4% Typan Blue in PBS with a hemocytometer (Denhardt et al., 1991; Domin and Rozengurt, 1993), and the cells were plated in 24 well plates (Corning Glassworks, Corning, N.Y.), precoated with 1% gelatin at a density of 5000 cells/well. Cells were cultured in EMEM containing 10% horse serum and varying concentrations of dexamethasone (Sigma, Salom, Mo.). Four wells served as controls and received medium without dexamethasone. Four wells each received medium containing 10^−10 M, 10^−9 M, 10^−8 M, 10^−7 M, 10^−6 M dexamethasone. The medium was changed every other day and cultures were examined using phase contrast microscopy for the appearance of different phenotypes.
• Bone—The presence of calcified tissue was assayed by Von Kossa's staining of calcium phosphate as described by Humason. Briefly, the culture medium was removed, and the plates were rinsed twice with the DPBS. The cells were fixed with 0.5 ml of 10% formalin for 3-5 minutes, then rinsed four times with distilled water. One half of a milliliter of freshly prepared 2% silver nitrate solution was then added, and the cells were incubated in the dark for 10 minutes. After incubation, the silver nitrate solution was removed and the cells were rinsed five times with distilled water. Approximately 0.5 ml of distilled water was left on each well. The plate was exposed to bright light for 15 minutes against a white background to reflect light. The plates were again rinsed five times with distilled water and quickly dehydrated with 100% ethanol. The plates were made permanent with glycerin jelly. Confirmation of the presence of calcium phosphate was performed by pretreating selected cultures with 1% weight/volume [ethylene bis(oxyethylenenitrilo)]-tetraacetic acid, a specific calcium chelator, in Ca, MG-free buffer for 1 hour before incubation in the silver nitrate solution. • Muscle—The cells were stained with the MF-20 antibody to sarcomeric myosin (Hybridoma Bank, Ames Iowa) by means of a modified procedure of Young et. al., 1992b. […]

progenitor stem cells = assay: Proliferation and phenotypic responses to bioactive factors: progenitor cells; format: cell-based; conditions: for Phenotypic Expression, Progenitor: presence and approximate distribution of differentiated phenotypes within the culture wells
Description: (§1) Having access to mixed populations of progenitor stem cells, progenitor stem cell clones, and pluripotent stem cell clones permits one to address the influence of various bioactive factors (e.g. recombinant growth factors, purified compounds, and novel inductive factors) on the growth characteristics and phenotypic expression of these stem cells.
(§2) Cryopreserved cells are thawed and plated in MSC-1 at 5, 10, or 20×10^3 cells per well of gelatinized 24-well plates following the standard protocol. Twenty-four hours after initial plating the medium is changed to testing medium (TM) 1 to 6 (TM-1, TM-2, TM-3, TM-4, TM-5, or TM-6). TM-1 to TM-4 consist of Ultraculture (cat. no. 12-725B, lot. nos. OMO455 [TM-1], 1M1724 [TM-2], 2M0420 [TM-3], or 2M0274 [TM-4], Bio-Whittaker, Walkersville, Md.), medium (EMEM or Opti-MEM 0.01 mM β-mercaptoethanol), and 1% (v/v) antibiotic-antimycotic, pH 7.4. TM-5 consists of 98% (v/v) medium, 1% (v/v) HS, and 1% (v/v) antibiotic-antimycotic, pH 7.4. TM-6 consists of 98.5% (v/v) medium, 0.5% (v/v) HS, and 1% (v/v) antibiotic-antimycotic, pH 7.4. […] Four testing media (TM#'s 1-4), each containing various concentrations of Ultraculture, were used as. […] The four Ultraculture-based testing media were: TM-1=15% (v/v) Ultraculture (Lot no. OMO455): 84% (v/v) medium: 1% (v/v) antibiotics; TM-2=15% (v/v) Ultraculture (Lot no. 1M1724): 84% (v/v) medium: 1% (v/v) antibiotics; TM-3=50% (v/v) Ultraculture (Lot no. 2M0420): 49% (v/v) medium: 1% (v/v) antibiotics; and TM-4=75% (v/v) Ultraculture (Lot no. 2M0274): 24% (v/v) medium: 1% (v/v) antibiotics. Pre-incubation for 24 hr in testing medium alone is used to wash out any potential synergistic components in the MSC-1 medium. Twenty-four hours later the testing medium is changed to one of the following. For controls, TM-1 to TM-6 alone is used. To identify clones of progenitor cells, the medium is replaced with TM-1 to TM-6 containing 2 μg/ml insulin (Sigma), an agent that accelerates the appearance of phenotypic expression markers in progenitor cells (TABLE 12). To identify clones of pluripotent cells, the medium is replaced with TM-1 to TM-6 containing 10^−10 to 10^−6 M dexamethasone (Sigma), a general non-specific lineage-inductive agent (TABLE 13). Control and treated cultures are propagated for an additional 30-45 days with medium changes every other day. Four culture wells are used per concentration per experiment. During the 0-45 day time period the cultures are examined subjectively for changes in morphological characteristics on a daily basis. Alterations in phenotypic expression are correlated with the days of treatment and associated insulin or dexamethasone concentrations. The experiment is then repeated utilizing these parameters to confirm objectively the phenotypic expression markers using established histological, functional/histochemical, ELICA/flow cytometry, and molecular assays (TABLE 13).

pluripotent stem cells = assay: Proliferation and phenotypic responses to bioactive factors: pluripotent cells; format: cell-based; conditions: for Phenotypic Expression, Pluripotent: presence and approximate distribution of differentiated phenotypes within the culture wells
Description: as §1, §2

cardiac myocytes = assay: Beat rate of binucleated beating cells in dexamethasone-treated Swiss-3T3 cultures exposed to isoproterenol and propanolol; format: cell-based, mouse
Description: The wells were then washed six times with EMEM+10% horse serum and viewed on a Nikon Diaphot with fluorescent attachment. • Cardiac muscle—Cardiac myocytes were identified based on their large binucleated nuclei and their reactions to inotropic and chronotropic agents.

Compound | dexamethasone concentrations at which cartilage nodules appeared [1] | dexamethasone concentrations at which fibroblasts appeared ([1]; after 3 weeks) | dexamethasone concentrations at which adipocytes appeared ([1]; first appeared at 2 weeks) | dexamethasone concentration at which binucleated beating cells appeared (Swiss-3T3 cells; 4 weeks in culture) | dexamethasone concentration at which myotubes appeared (Swiss-3T3 cells; 14 days) | dexamethasone concentration at which most adipocytes appeared (Swiss-3T3 cells; after two weeks treatment) | Proliferation, Progenitor: number of times the agent increased the DNA content per well versus its respective control (progenitor stem cells) | Proliferation, Pluripotent: number of times the agent increased the DNA content per well versus its respective control (pluripotent stem cells) | beat rate (cardiac myocytes; cells treated with 10^−6 M isoproterenol) [beats per minute] | Beats per minute (cardiac myocytes; n = 5, 10−6M) | Phenotypic Expression, Progenitor (progenitor stem cells) | activity on pluripotent and progenitor stem cells, in words (pluripotent stem cells) | Phenotypic Expression, Pluripotent (pluripotent stem cells)
C[C@@H]1C[C@H]2[C@@H]3CCC4=CC(=O)C=C[C@]4(C)[C@@]3(F)[C@@H](O)C[C@]2(C)[C@@]1(O)C(=O)CO [Dex, dexamethasone] | 10^−9-10^−6 M | 10^−9-10^−7 M | 10^−8-10^−6 M | 10^−7-10^−6 M | 10^−9-10^−6 M | 10^−8-10^−6 M | − | − |  |  |  |  | 
CC(C)NCC(O)c1ccc(O)c(O)c1 (stereo not shown) [Isoproteronol, isoproterenol] |  |  |  |  |  |  |  |  | 85 | 87.4± * Beats per minute |  |  | 
IGF-I: insulin-like growth factor-I |  |  |  |  |  |  | 1 times | 1 times |  |  | All+++ | stimulated lineage-progression in all progenitor cells, but had no measurable effect on pluripotent cells | 0
IGF-II: insulin-like growth factor-II |  |  |  |  |  |  | 1 times | 1 times |  |  | All+++ | stimulated lineage-progression in all progenitor cells, but had no measurable effect on pluripotent cells | 0
PDGF-AA: Platelet-derived growth factor-AA |  |  |  |  |  |  | 16 times | 16^b times |  |  | All+ | stimulated proliferation in pluripotent cells and in all lineages of progenitor cells | 0
PDGF-BB: platelet-derived growth factor-BB |  |  |  |  |  |  | 19 times | 19 times |  |  | All+ | stimulated proliferation in pluripotent cells and in all lineages of progenitor cells | 0
TGF-β |  |  |  |  |  |  | − | −^c |  |  | F++ | stimulated lineage-progression in fibrogenic progenitor cells, inhibited lineage-progression in all other progenitor cells, and had no effect on pluripotent cells | 0
b-FGF: Basic-fibroblast growth factor |  |  |  |  |  |  | 1 times | 1 times |  |  | F++ | stimulated lineage-progression in fibrogenic progenitor cells, inhibited lineage-progression in all other progenitor cells, and had no effect on pluripotent cells | 0
